{
  "source": "patent US20240209028A1",
  "about": "“CNP COMPOUNDS” (priority 2022, published 2024)",
  "key": {"[1]": {"test": "Thioflavin T (ThT) assay: lagtime and peptide recovery", "format": "physicochemical", "conditions": "assay terminated after 45 hours; for LagTime (h) at pH 4.0: ThT, 37° C., shaking; for LagTime (h) at pH 6.5: ThT assay, pH 6.5, 37° C.", "source_text": "The ThT assay was used to evaluate physical stability of the CNP compounds and their suitability for liquid formulation. Low physical stability of peptides may lead to amyloid fibril formation, which is observed as well-ordered, thread-like macromolecular structures in the sample eventually resulting in gel formation. This has traditionally been tested by visual inspection of the sample. However, that kind of measurement is very subjective and depending on the observer. Therefore, the application of a small molecule indicator probe is much more advantageous. Thioflavin T (ThT) is such a probe and has a distinct fluorescence signature when binding to fibrils [Naiki et al. (1989) Anal. Biochem. 177, 244-249; LeVine (1999) Methods. Enzymol. […], 274-284].\nProcedure: Thioflavin T was added to the supernatant samples from Example 5 (pH 4.0 and 6.5) using an aqueous ThT stock solution to a final concentration of about 1 μM in the samples. Sample aliquots of 150 μL were placed in a 96 well microtiter plate (Packard OptiPlate™-96, white polystyrene). Usually, two to three replicas of each sample were applied to the plate. The plate was sealed and placed in a fluorescence plate reader (Fluoroskan Ascent FL) and incubated at 37° C. with orbital shaking (960 rpm; 1 mm amplitude). Fluorescence measurements were performed every 20 minutes using excitation through a 444 nm filter and measurement of emission through a 485 nm filter. Between each measurement, the plate was shaken and heated as described above and the assay was terminated after 45 hours. Fluorescence measurements for each microtiter plate well were plotted against time and the lag-time (time until an increase in ThT fluorescence was observed) was estimated.\nTo assess loss of dissolved peptide following 45h incubation, peptide recovery was measured as the ratio between total peak area after incubation vs. before incubation using the RP-UPLC method described below.\nMeasurement of LagTime and Peptide recovery % using RP-UPLC: RP-UPLC was conducted using an Acquity UPLC BEH C18 1.7 μm (2.1×30 mm) Waters column (Eluent A: 0.1% v/v % TFA in water; Eluent B: 0.1% v/v TFA in acetonitrile/water 4:1) with gradient elution (0 min: 95% A; 2 min: 20% A; 2.3 min: 20% A; 2.4 min: 95% A; 9 min: 95% A) in a flow rate of 0.9 mL/min and a column temperature of 30° C. UV-detection at 215 nm was used to assess the total peptide area.\nSamples at pH 4.0 were prepared as described in Example 5 and subjected to the ThT assay as described above.\nSamples at pH 6.5 were prepared as described in Example 5 and subjected to the ThT assay as described above."}, "[2]": {"test": "High-Molecular-Weight-Protein (HMWP) formation by SEC-UPLC", "format": "physicochemical", "conditions": "increase over two weeks at 37° C.", "description": "In order to assess the propensity of CNP compounds to form covalent dimers or oligomers when formulated the High-Molecular-Weight-Protein content of CNP compound formulations at pH 4.0 and 6.5 were determined.\nProcedure: The relative amount of covalent HMWP was assessed using SEC-UPLC. SEC-UPLC was conducted using a Waters UPLC Protein BEH SEC column, 125A, 4.6×150 mm, 1.7 μm, with isocratic elution (0.3 M NaCl, 10 mM NaH2PO4 and 5 mM H3PO4, 50% (v/v) isopropanol, pH 2.4) with a flow rate of 0.3 mL/min, a column temperature at 50° C. with UV-detection at 215 nm. The total area of peaks eluting prior to the monomeric main peak was termed HMWP and given on a percentage scale relative to the total peptide peak area.\n(§1) Results: HMWP Formation Following 2-Weeks Quiescent Incubation at 37° C.: Samples at pH 4.0 were prepared as described in Example 5 and the amount of HMWP was determined as described above. Samples were incubated for two weeks at 37° C. and the amount of HMWP was determined again. The increase in HMWP over two weeks incubation at 37° C. are reported in Table 10 (in case the incubation period deviated from two weeks the increase in HMWP was normalized to two weeks assuming a constant formation rate).\nas §1, with “Samples” for “Results: HMWP Formation Following 2-Weeks Quiescent Incubation at 37° C.: Samples”, “6.5” for “4.0”, “11” for “10”"}},
  "note": "Starred links: 1 amine or outer side, 2 acyl side, 3 side chain; linkers in the order of their positions; H or OH if unused. Positions of bridges follow the written chain, without caps; N, C: chain ends. Residues, ends and D or L forms follow the SMILES beside them. *: point of attachment. C18 diacid = O=C(O)CCCCCCCCCCCCCCCCC(=O)*; γGlu = O=C(O)[C@H](CCC(=O)[*:2])N[*:1]; AEEA = NCCOCCOCC(=O)O",
  "data": [
    {"molecule": "CC[C@H](C)[C@@H]1NC(=O)[C@H](CCCNC(=N)N)NC(=O)[C@H](CC(=O)O)NC(=O)[C@H](CC(C)C)NC(=O)[C@@H]2CCCN2C(=O)[C@H](CC(C)C)NC(=O)CNC(=O)[C@H](Cc2ccccc2)NC(=O)[C@@H](NC(=O)CNC(=O)[C@H](CCCCN)NC(=O)[C@H](CO)NC(=O)[C@H](CC(C)C)NC(=O)CNC(=O)[C@H](CCCCN)NC(=O)[C@H](CCCCN)NC(=O)[C@H](CCC(N)=O)NC(=O)[C@H](C)NC(=O)CNC(=O)[C@H](CCCCN)NC(=O)[C@H](Cc2ccc(O)cc2)NC(=O)[C@H](CCCCN)NC(=O)[C@H](CCCNC(=N)N)NC(=O)[C@H](C)NC(=O)[C@H](CCC(N)=O)NC(=O)[C@@H]2CCCN2C(=O)[C@H](Cc2c[nH]cn2)NC(=O)[C@H](CCC(=O)O)NC(=O)[C@H](CCC(N)=O)NC(=O)COCCOCCNC(=O)COCCOCCNC(=O)CC[C@H](NC(=O)CC[C@H](NC(=O)CC[C@H](NC(=O)CC[C@H](NC(=O)CC[C@H](NC(=O)CCCCCCCCCCCCCCCCC(=O)O)C(=O)O)C(=O)O)C(=O)O)C(=O)O)C(=O)O)CSSC[C@@H](C(=O)O)NC(=O)CNC(=O)[C@H](CC(C)C)NC(=O)CNC(=O)[C@H](CO)NC(=O)[C@H](CC(C)C)NC(=O)[C@H](CO)NC(=O)CNC1=O", "note": "[compound 1474] ({C18 diacid-γGlu-γGlu-γGlu-γGlu-γGlu-AEEA-AEEA}-QEHPQARKYKGAQKKGLSKGCFGLPLDRIGSLSGLGC-OH; disulfide 21-37; C-terminus assumed)", "values": [
      {"measurement": "LagTime (h) at pH 4.0", "setting": "[1]", "value": 45, "unit": "h"},
      {"measurement": "2-Week HMWP formation at pH 4.0 (%), % relative to total peak area", "setting": "[2]", "value": 1.6, "unit": "%"}
    ]},
    {"molecule": "CC[C@H](C)[C@@H]1NC(=O)[C@H](CCCNC(=N)N)NC(=O)[C@H](CC(=O)O)NC(=O)[C@H](CC(C)C)NC(=O)[C@@H]2CCCN2C(=O)[C@H](CC(C)C)NC(=O)CNC(=O)[C@H](Cc2ccccc2)NC(=O)[C@@H](NC(=O)CNC(=O)[C@H](CO)NC(=O)[C@H](CO)NC(=O)[C@@H](NC(=O)CNC(=O)[C@@H](NC(=O)[C@H](Cc2c[nH]cn2)NC(=O)[C@H](CCC(N)=O)NC(=O)[C@H](C)NC(=O)CNC(=O)[C@H](Cc2c[nH]cn2)NC(=O)[C@H](Cc2ccc(O)cc2)NC(=O)[C@H](CCCCN)NC(=O)[C@H](CCCNC(=N)N)NC(=O)[C@H](C)NC(=O)COCCOCCNC(=O)COCCOCCNC(=O)CC[C@H](NC(=O)CCCCCCCCCCCCCCCCC(=O)O)C(=O)O)[C@@H](C)O)C(C)C)CSSC[C@@H](C(=O)O)NC(=O)CNC(=O)[C@H](CC(C)C)NC(=O)CNC(=O)[C@H](CO)NC(=O)[C@H](CC(C)C)NC(=O)[C@H](CO)NC(=O)CNC1=O", "note": "[compound 1351] ({C18 diacid-γGlu-AEEA-AEEA}-ARKYHGAQHTGVSSGCFGLPLDRIGSLSGLGC-OH; disulfide 16-32)", "values": [
      {"measurement": "LagTime (h) at pH 4.0", "setting": "[1]", "value": 45, "unit": "h"},
      {"measurement": "2-Week HMWP formation at pH 4.0 (%), % relative to total peak area", "setting": "[2]", "value": 1.94, "unit": "%"}
    ]},
    {"molecule": "CC[C@H](C)[C@@H]1NC(=O)[C@H](CCCNC(=N)N)NC(=O)[C@H](CC(=O)O)NC(=O)[C@H](CC(C)C)NC(=O)[C@@H]2CCCN2C(=O)[C@H](CC(C)C)NC(=O)CNC(=O)[C@H](Cc2ccccc2)NC(=O)[C@@H](NC(=O)CNC(=O)[C@H](CO)NC(=O)[C@H](CO)NC(=O)[C@H](CC(C)C)NC(=O)CNC(=O)[C@H](CCCCN)NC(=O)[C@H](CCCCN)NC(=O)[C@H](CCC(N)=O)NC(=O)[C@H](C)NC(=O)CNC(=O)[C@H](CCC(=O)O)NC(=O)[C@H](Cc2ccc(O)cc2)NC(=O)CNC(=O)CNC(=O)CNC(=O)COCCOCCNC(=O)COCCOCCNC(=O)CC[C@H](NC(=O)CCCCCCCCCCCCCCCCC(=O)O)C(=O)O)CSSC[C@@H](C(=O)O)NC(=O)CNC(=O)[C@H](CC(C)C)NC(=O)CNC(=O)[C@H](CO)NC(=O)[C@H](CC(C)C)NC(=O)[C@H](CO)NC(=O)CNC1=O", "note": "[compound 1378] ({C18 diacid-γGlu-AEEA-AEEA}-GGGYEGAQKKGLSSGCFGLPLDRIGSLSGLGC-OH; disulfide 16-32)", "values": [
      {"measurement": "LagTime (h) at pH 6.5", "setting": "[1]", "value": 2.5, "unit": "h"},
      {"measurement": "2-Week HMWP formation at pH 6.5 (%), % relative to total peak area", "setting": "[2]", "value": 6.67, "unit": "%"}
    ]},
    {"molecule": "CC[C@H](C)[C@@H]1NC(=O)[C@H](CCCNC(=N)N)NC(=O)[C@H](CC(=O)O)NC(=O)[C@H](CC(C)C)NC(=O)[C@@H]2CCCN2C(=O)[C@H](CC(C)C)NC(=O)CNC(=O)[C@H](Cc2ccccc2)NC(=O)[C@@H](NC(=O)CNC(=O)[C@H](CCC(N)=O)NC(=O)[C@H](CO)NC(=O)CNC(=O)CNC(=O)[C@H](CCCCN)NC(=O)[C@H](CCCCN)NC(=O)[C@H](CCC(N)=O)NC(=O)[C@H](C)NC(=O)CNC(=O)[C@H](CCCCN)NC(=O)[C@H](Cc2ccc(O)cc2)NC(=O)COCCOCCNC(=O)COCCOCCNC(=O)COCCOCCNC(=O)COCCOCCNC(=O)CC[C@H](NC(=O)CC[C@H](NC(=O)CCCCCCCCCCCCCCCCC(=O)O)C(=O)O)C(=O)O)CSSC[C@@H](C(=O)O)NC(=O)CNC(=O)[C@H](CC(C)C)NC(=O)CNC(=O)[C@H](CO)NC(=O)[C@H](CC(C)C)NC(=O)[C@H](CO)NC(=O)CNC1=O", "note": "[compound 9435] ({C18 diacid-γGlu-γGlu-AEEA-AEEA-AEEA-AEEA}-YKGAQKKGGSQGCFGLPLDRIGSLSGLGC-OH; disulfide 13-29; C-terminus assumed)", "values": [
      {"measurement": "LagTime (h) at pH 6.5", "setting": "[1]", "value": 45, "unit": "h"},
      {"measurement": "LagTime (h) at pH 4.0", "setting": "[1]", "value": 45, "unit": "h"},
      {"measurement": "2-Week HMWP formation at pH 4.0 (%), % relative to total peak area", "setting": "[2]", "value": 1.07, "unit": "%"},
      {"measurement": "2-Week HMWP formation at pH 6.5 (%), % relative to total peak area", "setting": "[2]", "value": 1.93, "unit": "%"}
    ]},
    {"molecule": "CC[C@H](C)[C@@H]1NC(=O)[C@H](CCCNC(=N)N)NC(=O)[C@H](CC(=O)O)NC(=O)[C@H](CC(C)C)NC(=O)[C@@H]2CCCN2C(=O)[C@H](CC(C)C)NC(=O)CNC(=O)[C@H](Cc2ccccc2)NC(=O)[C@@H](NC(=O)CNC(=O)[C@H](CCC(N)=O)NC(=O)[C@H](CO)NC(=O)[C@H](CO)NC(=O)CNC(=O)[C@H](CCCCN)NC(=O)[C@H](CCCCN)NC(=O)[C@H](CCC(N)=O)NC(=O)[C@H](C)NC(=O)CNC(=O)[C@@H]2CCCN2C(=O)[C@H](C)NC(=O)[C@H](CCC(N)=O)NC(=O)CNC(=O)COCCOCCNC(=O)COCCOCCNC(=O)CC[C@H](NC(=O)CCCCCCCCCCCCCCCCC(=O)O)C(=O)O)CSSC[C@@H](C(=O)O)NC(=O)CNC(=O)[C@H](CC(C)C)NC(=O)CNC(=O)[C@H](CO)NC(=O)[C@H](CC(C)C)NC(=O)[C@H](CO)NC(=O)CNC1=O", "note": "[compound 9384] ({C18 diacid-γGlu-AEEA-AEEA}-GQAPGAQKKGSSQGCFGLPLDRIGSLSGLGC-OH; disulfide 15-31; C-terminus assumed)", "values": [
      {"measurement": "LagTime (h) at pH 6.5", "setting": "[1]", "value": 45, "unit": "h"},
      {"measurement": "2-Week HMWP formation at pH 6.5 (%), % relative to total peak area", "setting": "[2]", "value": 1.5, "unit": "%"}
    ]}
  ]
}
